The record followed here is US20250275993A1, “GLYCOSYLATION INHIBITORS AS THERAPEUTICS FOR STROKE” (The Regents of the University of California, priority 2022, published 2025).

The test system of one data set is ARPE-19 RPE cells. Description: Human RPE proliferation assay. In kind it is cell-based. The protocol:
(§1) Proliferation assays with fibroblasts were done in low-glucose DMEM containing 1% FBS, with or without 10 ng/ml bFGF, or 100 ng/ml human EGF and the assay was ended at day 3. ARPE-19 cells were gently lifted with 0.025% trypsin and plated in RtEGM media (Clonetics) containing 2% FBS, L-glutamine, human bFGF and GA-1000. Once cells were attached to plates, serum-free RtEGM media was used to maintain the cultures. For proliferation assays, 1500 human RPE cells were plated into 96-well plates in low-glucose DMEM containing 1% FBS. A673, U87MG, Calu6 and AML12 cells were grown until confluent and were then harvested and re-suspended in appropriate assay media. For proliferation assays, cells were plated at the density of 1000-2000 cells/well in low-glucose DMEM containing 5% FBS or otherwise stated. Bovine pituitary cells (pituitary folliculostellate cells) were isolated as previously described. For proliferation assays with human epidermal keratinocytes, human DMVECs and human dermal fibroblast cells, 1000 cells/well were plated in low-glucose DMEM containing 1% FBS with or without various growth factors. The assay was ended at day 3 for bovine pituitary cells and at day 4 for all the other cell types. […] Four days later, tumor cell growth was measured by the MTS assay (Promega, Madison, WI), a colorimetric assay that measures metabolic activity of viable cells. […]

A further data set deals with U87MG. The data set is described as follows: U87MG proliferation assay. Type of data set: cell-based. As to conditions: ManN. The protocol:
as §1

Data set [1] concerns vascular permeability in guinea pig skin. The data set is described as follows: Vascular permeability assay (modified Miles assay). Type of data set: in vivo. As to conditions: ManN 1 ng-5 μg, VEGF 25 ng, intradermal. On the procedure: Vascular permeability was assessed using a modified Miles assay. Hairless male guinea pigs (Crl: HA-Hrhr/IAF, 75 days old, 450-500 g, Charles River Laboratories) were anesthetized by intraperitoneal (i.p.) administration of xylazine (5 mg/kg) and ketamine (75 mg/kg). The animals then received an intravenous injection (penile vein) of 1 ml of 1% Evans blue dye. After 15 mins, intradermal injections (0.05 ml/per site) of different doses of ManN were administrated into the area of trunk posterior to the shoulder. All reagents were diluted in PBS for intradermal administration. 25 ng of VEGF165 per site was used as positive control. 30 mins after the intradermal injections, animals were euthanized by i.p. injection of pentobarbital (200 mg/kg). Skin tissues were dissected from the connective tissues and photographed.

Another data set deals with bovine pituitary cells. The data set is described as follows: Bovine pituitary cell proliferation assay. Type of data set: cell-based. Particulars: alone or in combination with growth factors. On the procedure:
as §1

For data set [2], the system named is N-linked glycans from BCECs. The data set is described as follows: N-glycan analysis of BCECs. In kind it is cell-based, bovine. On the procedure: As soon as BCECs reached about 80% confluency, they were washed twice with phosphate buffered saline (PBS, Sigma) and harvested by scraping. The cells were pelleted by centrifugation at 300 g for 3 mins and washed once with cold PBS. Cells were homogenized and total protein was measured. All subsequent analysis was based on known protein amount.
N-linked glycans were removed from glycoprotein samples using PNGase-F kit (New England BioLabs, P0705S). Briefly, 300 μg of protein sample was reconstituted in 180 μl UltraPure water. 20 μl of 10× denaturing buffer was added and boiled using 100° C. water bath for 14 mins. Samples were cooled down to room temperature and centrifuged at 2700 g for 1 min. Subsequently, 50 μl 10×NP-40 was added and samples were kept at room temperature for 30 mins with vortexing at 5 min interval, followed by adding 25 μL of 10× reaction buffer and mixing thoroughly. 5 μl PNGaseF (2500 U) was then added to the samples and mixed gently. Samples were incubated at 37° C. for 16 hrs. Released N-glycans were purified using solid phase extraction method. […] The data was collected using the Dionex ICS-3000 HPLC system with Ultimate 3000 fluorescence detector (Dionex) set at Acx 330 nm at Atm 420 nm with sensitivity 7. […]

For another data set, the system named is NIH3T3 fibroblasts. Description: NIH3T3 proliferation assay. As to conditions: alone or in combination with growth factors. In kind it is cell-based, mouse. On the procedure: as §1
For data set [3], the target named is T1, α-mannosidase from Jack Bean (Canavalia ensiformis, UniProt C0HJB3).
T1 construct: purchased M7257
T1 sequence (C0HJB3 whole entry): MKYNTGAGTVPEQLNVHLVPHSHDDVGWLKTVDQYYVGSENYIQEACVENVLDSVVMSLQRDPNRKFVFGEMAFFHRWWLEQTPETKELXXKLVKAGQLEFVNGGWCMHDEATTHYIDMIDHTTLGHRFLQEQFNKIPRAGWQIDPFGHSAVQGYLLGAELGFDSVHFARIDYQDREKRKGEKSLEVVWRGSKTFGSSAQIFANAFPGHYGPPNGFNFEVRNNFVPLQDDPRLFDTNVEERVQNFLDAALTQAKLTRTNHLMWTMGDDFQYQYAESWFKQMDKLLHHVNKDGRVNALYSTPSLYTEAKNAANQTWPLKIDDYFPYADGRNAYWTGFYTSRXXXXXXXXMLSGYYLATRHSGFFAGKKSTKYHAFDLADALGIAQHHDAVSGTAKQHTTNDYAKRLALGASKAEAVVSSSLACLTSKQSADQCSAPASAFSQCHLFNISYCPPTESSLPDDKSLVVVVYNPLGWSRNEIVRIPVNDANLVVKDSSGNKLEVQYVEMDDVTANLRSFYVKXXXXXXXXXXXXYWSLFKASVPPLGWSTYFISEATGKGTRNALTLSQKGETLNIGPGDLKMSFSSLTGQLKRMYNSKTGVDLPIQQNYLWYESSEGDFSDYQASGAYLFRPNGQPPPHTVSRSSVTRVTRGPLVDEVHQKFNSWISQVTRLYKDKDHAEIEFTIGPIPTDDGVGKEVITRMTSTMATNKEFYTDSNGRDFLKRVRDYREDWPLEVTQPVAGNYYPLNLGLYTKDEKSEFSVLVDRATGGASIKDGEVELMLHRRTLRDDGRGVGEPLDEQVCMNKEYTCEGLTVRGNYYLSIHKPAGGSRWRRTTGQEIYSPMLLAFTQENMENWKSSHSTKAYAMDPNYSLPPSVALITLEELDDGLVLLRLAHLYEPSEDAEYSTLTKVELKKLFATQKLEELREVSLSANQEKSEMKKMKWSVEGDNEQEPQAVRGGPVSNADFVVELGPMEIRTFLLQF
The data set is described as follows: α-mannosidase activity assay. In kind it is biochemical. As to conditions: 400 μM. The protocol: a-mannosidase activity was measured using substrate p-nitrophenyl α-mannopyranoside (1 mM). Enzyme from Jack Bean (M7257) (final concentration of 0.077 U) was incubated at 37° C. in a final volume of 50 μl of 50 mM potassium phosphate buffer, pH 7.5. α-glucosidase was assayed with substrate p-nitrophenyl a-glucoside (7 mM). Enzyme from Saccharomyces cerevisiae-type 1 (Sigma, G5003) (final concentration of 0.1 U) was incubated at 37° C. in a final volume of 50 μl of PBS, pH 7.5. β-Glucosidase was assayed with substrate 4-nitrophenyl β-D-glucopyranoside (Roche). Enzyme from almond (Sigma, G0395) (final concentration of 0.002 U) was incubated at 37° C. in a final volume of 50 μl of PBS, pH 7.5 […]. The incubation was stopped by addition of an equal volume of acid-based stop solution (R&D systems, 895032). Enzymatic activity was measured at 405 nm. α-glucosidase from Saccharomyces cerevisiae type I (G5003) with p-nitrophenyl α-D-glucopyranoside (Sigma, N1377) as the substrate.

For a further data set, the system named is human keratinocytes. The data set is described as follows: Human keratinocyte proliferation assay. Type of data set: cell-based. The protocol: as §1
The mark [4] stands for this setting: alone or in combination with growth factors.

Molecules are shown by their SMILES.

With `N[C@H](C=O)[C@@H](O)[C@H](O)[C@H](O)CO` [ManN, 2-Amino-2-deoxy-D-mannose], in the data set on ARPE-19 RPE cells (5 mM level of ManN), the “sensitivity of human RPE cells to ManN toxicity” value was “least sensitive ones”. Also, the “proliferation of human RPEs” value in the data set on ARPE-19 RPE cells (setting [4]) is “no increases in proliferation”. Besides, the “growth of U87MG” value in the data set on U87MG is “did not promote growth”. For the same molecule, the “induction of vascular permeability” value in data set [1] is reported as “no permeability-enhancing effects”. Moreover, in the data set with bovine pituitary cells, the “proliferation of bovine pituitary cells” value was “no increases in proliferation”. In addition, the “Man-5 and Man-7 content” value in data set [2] (40 μM ManN) is listed as “significant early phase accumulation”. Also, the “Man-6, Man-8 and Man-9 in total oligomannose N-glycan content” value in data set [2] (40 μM ManN vs untreated control) was “significant time-dependent reduction”. Moreover, the “proliferation of NIH3T3 cells” value with NIH3T3 fibroblasts is reported as “no increases in proliferation”. In data set [3], the “inhibitory activity on α-mannosidase” value is recorded as “inhibitory activity”. For the same molecule, the “sensitivity of human keratinocytes to ManN toxicity” value in the data set on human keratinocytes (5 mM level of ManN) is reported as “least sensitive ones”. The “proliferation of human keratinocytes” value with human keratinocytes (setting [4]) is “no increases in proliferation”.
